Laboratory results: publication PMC6630832, “3-Vinylazetidin-2-Ones: Synthesis, Antiproliferative and Tubulin Destabilizing Activity in MCF-7 and MDA-MB-231 Breast Cancer Cells” (Pharmaceuticals, 2019)

Test system: not given
Assay: not given
Details: not given

First: C=CC1C(=O)N(c2cc(OC)c(OC)c(OC)c2)C1c1ccc(F)cc1 (stereo not drawn) [Compound 7a, 4-(4-Fluorophenyl)-1-(3,4,5-trimethoxyphenyl)-3-vinylazetidin-2-one]
Second: C=CC1C(=O)N(c2cc(OC)c(OC)c(OC)c2)C1c1ccccc1 (stereo not drawn) [Compound 7f, 4-Phenyl-1-(3,4,5-trimethoxyphenyl)-3-vinylazetidin-2-one]
The melting point of the first is higher: 147 to 149 °C for the first, 109 to 111 °C for the second.

Test system: human MCF-7 breast cancer cells
Assay: Cell viability (Alamar Blue) antiproliferative assay in MCF-7 cells
Type: cell-based
Details: Homo sapiens, MCF7, 72 h, human MCF-7 breast cancer cells; 72 h; mean ± SEM; read-out: Antiproliferative Activity IC50
Method: The human breast carcinoma cell line MCF-7, was purchased from the European Collection of Animal Cell Cultures (ECACC) and was cultured in Eagle’s minimum essential medium with 10% fetal bovine serum, 2 mM L-glutamine and 100 μg/mL penicillin/streptomycin. The medium was supplemented with 1% non-essential amino acids. The human breast carcinoma cell line MDA-MB-231 was purchased from the European Collection of Animal Cell Cultures (ECACC). MDA-MB-231 cells were maintained in Dulbecco’s modified Eagle’s medium (DMEM) supplemeted with 10% (v/v) fetal bovine serum, 2 mM L-glutamine and 100 μg/mL penicillin/streptomycin (complete medium). All media contained 100 U/mL penicillin and 100 μg/mL streptomycin. Triple negative breast cancer Hs578T cells and its invasive variant Hs578Ts(i)8 were obtained as a kind gift from Dr. Susan McDonnell, School of Chemical and Bioprocess Engineering, University College Dublin and were cultured in Dulbecco’s Modified Eagle’s Media (DMEM) with GlutaMAX^TM-I, with the same supplement as for MDA-MB-231 cells in the absence of non-essential amino acids. HEK-293T normal epithelial embryonic kidney cells were cultured in Dulbecco’s Modified Eagle’s Medium (DMEM) with GlutaMAX^TM-I in the absence of non-essential amino acids. K562 and HL-60 cells were originally obtained from the European Collection of Cell Cultures (Salisbury, UK).The K562 cells were derived from a patient in the blast crisis stage of CML HL-60 cells were derive from a patient with acute myeloid leukaemia. Cells were cultured in RPMI-1640 Glutamax medium supplemented with 10% FCS media, and 100 μg/mL penicillin/streptomycin. Cells were maintained at 37 °C in 5% CO2 in a humidified incubator. All cells were sub-cultured three times/week (adherent cells by trypsinisation).
Cells were seeded at a density of 5 × 10^3 cells/well (MCF-7), in triplicate in 96-well plates. After 24 h, cells were then treated with either medium alone, vehicle [1% ethanol (v/v)] or with serial dilutions of CA-4 or β-lactam analogue. Cell viability for MCF-7 and MDA-MB-231 was analysed using the Alamar Blue assay (Invitrogen Corp, Thermo Fisher Scientific, 168 Third Avenue, Waltham, MA, USA) according to the manufacturer’s instructions. After 72 h, Alamar Blue [10% (v/v)] was added to each well and plates were incubated for 3–5 h at 37 °C in the dark. Fluorescence was read using a 96-well fluorimeter with excitation at 530 nm and emission at 590 nm. Results were expressed as percentage viability relative to vehicle control (100%). Dose response curves were plotted and IC50 values (concentration of drug resulting in 50% reduction in cell survival) were obtained using the commercial software package Prism (GraphPad Software, Inc., 2365 Northside, Suite 560, San Diego, CA, USA). Experiments were performed in triplicate on at least three separate occasions.

First: C=CC1C(=O)N(c2cc(OC)c(OC)c(OC)c2)C1c1ccc(F)cc1 (stereo not drawn) [Compound 7a, 4-(4-Fluorophenyl)-1-(3,4,5-trimethoxyphenyl)-3-vinylazetidin-2-one]
Second: C=CC1C(=O)N(c2cc(OC)c(OC)c(OC)c2)C1c1ccc(Br)cc1 (stereo not drawn) [Compound 7c, 4-(4-Bromophenyl)-1-(3,4,5-trimethoxyphenyl)-3-vinylazetidin-2-one]
The IC50 of the first is 19-fold higher: 8310 ± 1400 nM for the first, 445 ± 70 nM for the second.

`C=CC1C(=O)N(c2cc(OC)c(OC)c(OC)c2)C1c1ccc(N(C)C)cc1` (stereo not drawn) [Compound 7e, 4-(4-Dimethylaminophenyl)-1-(3,4,5-trimethoxyphenyl)-3-vinylazetidin-2-one] and `C=CC1C(=O)N(c2cc(OC)c(OC)c(OC)c2)C1c1ccccc1` (stereo not drawn) [Compound 7f, 4-Phenyl-1-(3,4,5-trimethoxyphenyl)-3-vinylazetidin-2-one] are within error of each other in IC50: 4050 ± 450 nM for the first, 4030 ± 420 nM for the second.

Compared with `C=CC1C(=O)N(c2cc(OC)c(OC)c(OC)c2)C1c1ccc(OC)c([N+](=O)[O-])c1` (stereo not drawn) [Compound 7p, 4-(4-Methoxy-3-nitrophenyl)-1-(3,4,5-trimethoxyphenyl)-3-vinylazetidin-2-one], `C=CC1C(=O)N(c2cc(OC)c(OC)c(OC)c2)C1c1ccc(OC)c(NC(=O)C(C)N)c1` (stereo not drawn) [Compound 15, 2-Amino-N-(2-methoxy-5-(1-(3,4,5-trimethoxyphenyl)-4-oxo-3-vinylazetidin-2-yl)phenyl)propanamide] is 5.3-fold higher in IC50: 618 ± 100 nM for the first, 3250 ± 270 nM for the second. The first is the more potent here.

Compared with `C=CC1C(=O)N(c2ccc(F)cc2)C1c1cc(OC)c(OC)c(OC)c1` (stereo not drawn) [Compound 8a, 4-(3,4,5-Trimethoxyphenyl)-1-(4-fluorophenyl)-3-vinylazetidin-2-one], `C=CC1C(=O)N(c2ccc(C)cc2)C1c1cc(OC)c(OC)c(OC)c1` (stereo not drawn) [Compound 8g, 4-(3,4,5-Trimethoxyphenyl)-1-p-tolyl-3-vinylazetidin-2-one] is 40-fold higher in IC50: 1070 ± 140 nM for the first, 43100 ± 2160 nM for the second. The first is the more potent here.

`C=CC1C(=O)N(c2ccc([N+](=O)[O-])cc2)C1c1cc(OC)c(OC)c(OC)c1` (stereo not drawn) [Compound 8d, 4-(3,4,5-Trimethoxyphenyl)-1-(4-nitrophenyl)-3-vinylazetidin-2-one] and `C=CC1C(=O)N(c2ccc(OC)cc2)C1c1cc(OC)c(OC)c(OC)c1` (stereo not drawn) [Compound 8i, 4-(3,4,5-Trimethoxyphenyl)-1-(4-methoxyphenyl)-3-vinylazetidin-2-one] are within error of each other in IC50: 59200 ± 4160 nM for the first, 65100 ± 5550 nM for the second.

Compared with `COc1ccc(C2C(C(C)O)C(=O)N2c2cc(OC)c(OC)c(OC)c2)cc1O` (stereo not drawn) [Compound 10a, 3-(1-Hydroxyethyl)-4-(3-hydroxy-4-methoxyphenyl)-1-(3,4,5-trimethoxyphenyl) azetidin-2-one], `C=CC(O)C1C(=O)N(c2cc(OC)c(OC)c(OC)c2)C1c1ccc(OC)c(O)c1` (stereo not drawn) [Compound 10g, 4-(3-Hydroxy-4-methoxyphenyl)-3-(1-hydroxyallyl)-1-(3,4,5-trimethoxyphenyl) azetidin-2-one] is 4.4-fold higher in IC50: 65 ± 15 nM for the first, 288 ± 76 nM for the second. The first is the more potent here.

First: COc1ccc(C2C(C(O)/C=C/c3ccccc3)C(=O)N2c2cc(OC)c(OC)c(OC)c2)cc1 (stereo not drawn) [Compound 10e, 3-((E)-1-Hydroxy-3-phenylallyl)-1-(3,4,5-trimethoxyphenyl)-4-(4-methoxyphenyl) azetidin-2-one]
Second: COc1ccc(C2C(C(O)CO)C(=O)N2c2cc(OC)c(OC)c(OC)c2)cc1O (stereo not drawn) [Compound 13, 3-(1,2-Dihydroxyethyl)-4-(3-hydroxy-4-methoxyphenyl)-1-(3,4,5-trimethoxyphenyl) azetidin-2-one]
The IC50 of the first is 7.8-fold higher: 537 ± 80 nM for the first, 69 ± 29 nM for the second.

`C=CC(C)(O)C1C(=O)N(c2cc(OC)c(OC)c(OC)c2)C1c1ccc(OC)c(O)c1` (stereo not drawn) [Compound 10h, 4-(3-Hydroxy-4-methoxy-phenyl)-3-(1-hydroxy-1-methylallyl)-1-(3,4,5-trimethoxy-phenyl)-azetidin-2-one] and `COc1ccc(C2C(C(C)=O)C(=O)N2c2cc(OC)c(OC)c(OC)c2)cc1O` (stereo not drawn) [Compound 11, 3-Acetyl-4-(3-hydroxy-4-methoxyphenyl)-1-(3,4,5-trimethoxyphenyl)azetidin-2-one] are within error of each other in IC50: 467 ± 0.253 nM for the first, 414 ± 132 nM for the second.
